Each compound was assayed on Southern corn rootworm (Diabrotica undecimpuctata howardi Barber) (assay: Mite/insect screen, corn rootworm). Settings: Diabrotica; CRW rate 12.00 ppm, soil; read-out: CRW results (percent mortality).
Assay type: in vivo
Outline: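 Compound in acetone/alcohol with emulsifiers, diluted with water; 1 mL applied to 15 g dry sandy soil holding a presoaked corn seed. After 6–12 h drying, five 2-3 instar larvae added, held at 23° C; percent mortality and phytotoxicity scored after standard exposure periods.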

In order of falling mortality at 12 ppm:
1. Cc1cc2c(OCCc3ccc(C(C)(C)C)cc3)ncnc2o1 [Example 46, 4-[2-[4-(1,1-dimethylethyl)phenyl]ethoxy]-6-methylfuro[2,3-d]pyrimidine]  0%
2. COc1ccc(Oc2ncnc3oc(C)c(C)c23)cc1 [Example 65, 5,6-dimethyl-4-(4-methoxyphenoxy)furo[2,3-d]pyrimidine]  0%
3. Cc1cc2c(NCCc3ccc4ccccc4c3)ncnc2o1 [Example 31, 6-methyl-N-[2-(2-naphthalenyl)ethyl]furo[2,3-d]pyrimidine-4-amine]  0%

Same assay, conditions: Diabrotica; CRW rate 24.00 ppm, soil; read-out: CRW results (percent mortality)

In order of falling mortality at 24 ppm:
1. Cc1cc2c(OCCc3ccc(C(C)(C)C)cc3)ncnc2o1 [Example 46, 4-[2-[4-(1,1-dimethylethyl)phenyl]ethoxy]-6-methylfuro[2,3-d]pyrimidine]  0%
2. COc1ccc(Oc2ncnc3oc(C)c(C)c23)cc1 [Example 65, 5,6-dimethyl-4-(4-methoxyphenoxy)furo[2,3-d]pyrimidine]  0%
3. Cc1cc2c(NCCc3ccc4ccccc4c3)ncnc2o1 [Example 31, 6-methyl-N-[2-(2-naphthalenyl)ethyl]furo[2,3-d]pyrimidine-4-amine]  0%

The compounds below were run on southern armyworm (Spodopetra eridania Cramer) (assay: Mite/insect screen, Southern armyworm). Settings: Spodoptera eridania; rate 200 ppm, sprayed leaves; read-out: SAW results (percent mortality).
Assay type: in vivo
Outline: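 Compounds in acetone/alcohol with Toximul emulsifiers, diluted in water, sprayed to runoff on squash leaves at 10 psi and dried 1 h. Excised treated leaves fed to southern armyworm larvae in Petri dishes; percent mortality scored after standard exposure.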

In order of falling mortality at 200 ppm:
1. Cc1cc2c(NCCc3ccc4ccccc4c3)ncnc2o1 [Example 31, 6-methyl-N-[2-(2-naphthalenyl)ethyl]furo[2,3-d]pyrimidine-4-amine]  100%
2. Cc1cc2c(OCCc3ccc(C(C)(C)C)cc3)ncnc2o1 [Example 46, 4-[2-[4-(1,1-dimethylethyl)phenyl]ethoxy]-6-methylfuro[2,3-d]pyrimidine]  0%
3. COc1ccc(Oc2ncnc3oc(C)c(C)c23)cc1 [Example 65, 5,6-dimethyl-4-(4-methoxyphenoxy)furo[2,3-d]pyrimidine]  0%

Same assay, conditions: Spodoptera eridania; rate 400 ppm, sprayed leaves; read-out: SAW results (percent mortality)

In order of falling mortality at 400 ppm:
1. Cc1cc2c(NCCc3ccc4ccccc4c3)ncnc2o1 [Example 31, 6-methyl-N-[2-(2-naphthalenyl)ethyl]furo[2,3-d]pyrimidine-4-amine]  80%
2. Cc1cc2c(OCCc3ccc(C(C)(C)C)cc3)ncnc2o1 [Example 46, 4-[2-[4-(1,1-dimethylethyl)phenyl]ethoxy]-6-methylfuro[2,3-d]pyrimidine]  0%
3. COc1ccc(Oc2ncnc3oc(C)c(C)c23)cc1 [Example 65, 5,6-dimethyl-4-(4-methoxyphenoxy)furo[2,3-d]pyrimidine]  0%

The compounds below were run on Pseudoperonospora cubensis (downy mildew) (assay: Plant pathology screen (Test 1), downy mildew on squash). Settings: foliar, read-out: DOWN MDEW control rating.
Description: (§1) The test compounds were formulated for application by dissolving 50 mg of the compound into 1.25 ml of solvent. The solvent was prepared by mixing 50 ml of "Tween 20" (polyoxyethylene (20) sorbitan monolaurate emulsifier) with 475 ml of acetone and 475 ml of ethanol. The solvent/compound solution was diluted to 125 ml with deionized water. The resulting formulation contains 400 ppm test chemical. Lower concentrations were obtained by serial dilution with the solvent-surfactant mixture.
(§2) The formulated test compounds were applied by foliar spray. The following plant pathogens and their corresponding plants were employed.
(§3) The formulated technical compounds were sprayed on all foliar surfaces of the host plants (or cut berry) to past run-off. Single pots of each host plant were placed on raised, revolving pedestals in a fume hood. Test solutions were sprayed on all foliar surfaces. All treatments were allowed to dry and the plants were inoculated with the appropriate pathogens within 2-4 hours.
(§4) The effectiveness of test compounds in controlling disease was rated using the following scale.

First: Cc1cc2c(OCCc3ccc(C(C)(C)C)cc3)ncnc2o1 [Example 46, 4-[2-[4-(1,1-dimethylethyl)phenyl]ethoxy]-6-methylfuro[2,3-d]pyrimidine]
Second: Cc1cc2c(NCCc3ccc4ccccc4c3)ncnc2o1 [Example 31, 6-methyl-N-[2-(2-naphthalenyl)ethyl]furo[2,3-d]pyrimidine-4-amine]
The pest or weed control at 400 µg/mL of the first is lower: 0 to 19% for the first, 90 to 100% for the second.

`COc1ccc(Oc2ncnc3oc(C)c(C)c23)cc1` [Example 65, 5,6-dimethyl-4-(4-methoxyphenoxy)furo[2,3-d]pyrimidine] was tested, and the pest or weed control at 400 µg/mL was 0 to 19%.

These compounds were tested on melon aphids (Aphis gossvpii Glover) (assay: Mite/insect screen, melon aphids). Settings: Aphis; rate 200 ppm, sprayed leaves; read-out: MA results (percent mortality).
Assay type: in vivo
Outline: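 Aphids established on squash cotyledons were sprayed to runoff with compound in acetone/alcohol with sulfonate/nonionic emulsifiers, diluted in water to test concentrations. Leaves dried 1 h. Percent mortality scored after standard exposure periods.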

In order of falling mortality at 200 ppm:
1. Cc1cc2c(OCCc3ccc(C(C)(C)C)cc3)ncnc2o1 [Example 46, 4-[2-[4-(1,1-dimethylethyl)phenyl]ethoxy]-6-methylfuro[2,3-d]pyrimidine]  90%
2. Cc1cc2c(NCCc3ccc4ccccc4c3)ncnc2o1 [Example 31, 6-methyl-N-[2-(2-naphthalenyl)ethyl]furo[2,3-d]pyrimidine-4-amine]  90%
3. COc1ccc(Oc2ncnc3oc(C)c(C)c23)cc1 [Example 65, 5,6-dimethyl-4-(4-methoxyphenoxy)furo[2,3-d]pyrimidine]  0%

Same assay, conditions: Aphis; rate 400 ppm, sprayed leaves; read-out: MA results (percent mortality)

In order of rising mortality at 400 ppm:
1. COc1ccc(Oc2ncnc3oc(C)c(C)c23)cc1 [Example 65, 5,6-dimethyl-4-(4-methoxyphenoxy)furo[2,3-d]pyrimidine]  0%
2. Cc1cc2c(NCCc3ccc4ccccc4c3)ncnc2o1 [Example 31, 6-methyl-N-[2-(2-naphthalenyl)ethyl]furo[2,3-d]pyrimidine-4-amine]  0%
3. Cc1cc2c(OCCc3ccc(C(C)(C)C)cc3)ncnc2o1 [Example 46, 4-[2-[4-(1,1-dimethylethyl)phenyl]ethoxy]-6-methylfuro[2,3-d]pyrimidine]  60%

What follows are compounds tested on Erysiphe graminis tritici (powdery mildew) (assay: Plant pathology screen (Test 1), powdery mildew on wheat). Settings: Blumeria graminis, in Triticum aestivum, foliar, read-out: POWD MDEW control rating.

First: Cc1cc2c(OCCc3ccc(C(C)(C)C)cc3)ncnc2o1 [Example 46, 4-[2-[4-(1,1-dimethylethyl)phenyl]ethoxy]-6-methylfuro[2,3-d]pyrimidine]
Second: Cc1cc2c(NCCc3ccc4ccccc4c3)ncnc2o1 [Example 31, 6-methyl-N-[2-(2-naphthalenyl)ethyl]furo[2,3-d]pyrimidine-4-amine]
The pest or weed control at 400 µg/mL of the first is lower: 0 to 19% for the first, 20 to 89% for the second.

Work on `COc1ccc(Oc2ncnc3oc(C)c(C)c23)cc1` [Example 65, 5,6-dimethyl-4-(4-methoxyphenoxy)furo[2,3-d]pyrimidine] yielded a pest or weed control at 400 µg/mL of 20 to 89%.

These compounds were tested on Pyricularia oryzae (rice blast) (assay: whole plant or invertebrate). Settings: foliar, read-out: RICE BLAST control rating.
Assay type: in vivo

Compared with `Cc1cc2c(OCCc3ccc(C(C)(C)C)cc3)ncnc2o1` [Example 46, 4-[2-[4-(1,1-dimethylethyl)phenyl]ethoxy]-6-methylfuro[2,3-d]pyrimidine], `Cc1cc2c(NCCc3ccc4ccccc4c3)ncnc2o1` [Example 31, 6-methyl-N-[2-(2-naphthalenyl)ethyl]furo[2,3-d]pyrimidine-4-amine] is higher in pest or weed control at 400 µg/mL: 0 to 19% for the first, 20 to 89% for the second.

In the case of `COc1ccc(Oc2ncnc3oc(C)c(C)c23)cc1` [Example 65, 5,6-dimethyl-4-(4-methoxyphenoxy)furo[2,3-d]pyrimidine], the pest or weed control at 400 µg/mL is reported as 0 to 19%.

These compounds were tested on Puccinia recondita tritici (leaf rust) (assay: Plant pathology screen (Test 1), leaf rust on wheat). Settings: in Triticum aestivum, foliar, read-out: LEAF RUST control rating.

First: Cc1cc2c(OCCc3ccc(C(C)(C)C)cc3)ncnc2o1 [Example 46, 4-[2-[4-(1,1-dimethylethyl)phenyl]ethoxy]-6-methylfuro[2,3-d]pyrimidine]
Second: Cc1cc2c(NCCc3ccc4ccccc4c3)ncnc2o1 [Example 31, 6-methyl-N-[2-(2-naphthalenyl)ethyl]furo[2,3-d]pyrimidine-4-amine]
The pest or weed control at 400 µg/mL of the first is lower: 0 to 19% for the first, 90 to 100% for the second.

For `COc1ccc(Oc2ncnc3oc(C)c(C)c23)cc1` [Example 65, 5,6-dimethyl-4-(4-methoxyphenoxy)furo[2,3-d]pyrimidine], the pest or weed control at 400 µg/mL was 0 to 19%.

What follows are compounds tested on Twospotted spider mites (Tetranychus urticae Koch) (assay: Mite/insect screen, twospotted spider mites). Settings: Tetranychus urticae, rate 200 ppm, sprayed leaves; read-out: SM results (percent mortality).
Assay type: in vivo
Outline: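 Squash cotyledons infested with mites were sprayed to runoff at 10 psi with compound in acetone/alcohol plus emulsifiers, diluted in water to the stated concentrations. Percent mortality and phytotoxicity were scored after standard exposure periods.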

In order of falling mortality at 200 ppm:
1. Cc1cc2c(OCCc3ccc(C(C)(C)C)cc3)ncnc2o1 [Example 46, 4-[2-[4-(1,1-dimethylethyl)phenyl]ethoxy]-6-methylfuro[2,3-d]pyrimidine]  80%
2. Cc1cc2c(NCCc3ccc4ccccc4c3)ncnc2o1 [Example 31, 6-methyl-N-[2-(2-naphthalenyl)ethyl]furo[2,3-d]pyrimidine-4-amine]  20%
3. COc1ccc(Oc2ncnc3oc(C)c(C)c23)cc1 [Example 65, 5,6-dimethyl-4-(4-methoxyphenoxy)furo[2,3-d]pyrimidine]  0%

Same assay, conditions: Tetranychus urticae, rate 400 ppm, sprayed leaves; read-out: SM results (percent mortality)

In order of falling mortality at 400 ppm:
1. Cc1cc2c(NCCc3ccc4ccccc4c3)ncnc2o1 [Example 31, 6-methyl-N-[2-(2-naphthalenyl)ethyl]furo[2,3-d]pyrimidine-4-amine]  100%
2. Cc1cc2c(OCCc3ccc(C(C)(C)C)cc3)ncnc2o1 [Example 46, 4-[2-[4-(1,1-dimethylethyl)phenyl]ethoxy]-6-methylfuro[2,3-d]pyrimidine]  80%
3. COc1ccc(Oc2ncnc3oc(C)c(C)c23)cc1 [Example 65, 5,6-dimethyl-4-(4-methoxyphenoxy)furo[2,3-d]pyrimidine]  0%

These compounds were tested on Botrytis cinerea (gray mold) (assay: Plant pathology screen (Test 1), gray mold on grape berries). Settings: read-out: GRAY MOLD control rating.
Description: This screen was used to evaluate the efficacy of the present compounds against a variety of different organisms that cause plant diseases.
as §1, §2, §3, §4

`Cc1cc2c(OCCc3ccc(C(C)(C)C)cc3)ncnc2o1` [Example 46, 4-[2-[4-(1,1-dimethylethyl)phenyl]ethoxy]-6-methylfuro[2,3-d]pyrimidine] and `Cc1cc2c(NCCc3ccc4ccccc4c3)ncnc2o1` [Example 31, 6-methyl-N-[2-(2-naphthalenyl)ethyl]furo[2,3-d]pyrimidine-4-amine] fall in the same range of pest or weed control at 400 µg/mL: 0 to 19% for the first, 0 to 19% for the second.

Work on `COc1ccc(Oc2ncnc3oc(C)c(C)c23)cc1` [Example 65, 5,6-dimethyl-4-(4-methoxyphenoxy)furo[2,3-d]pyrimidine] yielded a pest or weed control at 400 µg/mL of 0 to 19%.
